Earlier results on 3 compounds are cited in patent US20070014819A1, “Method of emulsifying phytosterol by natural saponin,emulsion prepared thereby and water dispersible phytosterol powder product” (WECKTECK BIOTECHNOLOGY COMPANY LIMITED, priority 2005, published 2007).

The conditions of data set [1]: purified.
The conditions of data set [2]: administered orally directly.
For data set [3] the following is noted: around the world.

For β-sitosterol [phytosterol], in data set [1], the “solubility in water or oil and most solvents” value was “difficult to be dissolved”. Besides, the “absorption rate in a human body” value in data set [2] is listed as “less than 5%”. Besides, the “reduction of total cholesterol in blood” value in the data set with cholesterol in blood (daily intake of 1.4 g for one month) is “about 14%”. In the data set with cholesterol in blood (daily intake of more than 1.3 g, FDA article), the “reduction of the concentration of LDL” value was “effectively reduce”.

On to `CC(C)CCC[C@@H](C)[C@H]1CC[C@H]2[C@@H]3CC=C4C[C@@H](O)CC[C@]4(C)[C@H]3CC[C@]12C` [cholesterol, reference compound], for which the “absorption rate in a human body” value in data set [2] is “more than 50%”.

Turning to `COCc1c(C(C)C)nc(C(C)C)c(/C=C/[C@@H](O)C[C@@H](O)CC(=O)O)c1-c1ccc(F)cc1` [Baycol, cerivastatin], the “people dead from the side effects” value in data set [3] is on record as “more than 100 people”.
